According to BindingDB's records for doi:10.1016/s0960-894x(01)00219-0 (Research Biomet. Glaxo Wellcome Medicines Research Centre, 2001):

target: not listed separately; assay: Inhibition of erbB2 overexpressing BT 474 cell proliferation

SMILES | IC50 [µM]
CN(C)c1cc2c(Nc3ccc4c(cnn4Cc4ccccc4)c3)ncnc2cn1 [N*4*-(1-Benzyl-1H-indazol-5-yl)-N*6*,N*6*-dimethyl-pyrido[3,4-d]pyrimidine-4,6-diamine] | 0.07

target: Receptor tyrosine-protein kinase erbB-2 (Rattus norvegicus, UniProt P06494); assay: ChEBML_194950
From the text: Inhibition of rat Receptor protein-tyrosine kinase erbB2

Receptor tyrosine-protein kinase erbB-2, sequence (P06494 whole entry): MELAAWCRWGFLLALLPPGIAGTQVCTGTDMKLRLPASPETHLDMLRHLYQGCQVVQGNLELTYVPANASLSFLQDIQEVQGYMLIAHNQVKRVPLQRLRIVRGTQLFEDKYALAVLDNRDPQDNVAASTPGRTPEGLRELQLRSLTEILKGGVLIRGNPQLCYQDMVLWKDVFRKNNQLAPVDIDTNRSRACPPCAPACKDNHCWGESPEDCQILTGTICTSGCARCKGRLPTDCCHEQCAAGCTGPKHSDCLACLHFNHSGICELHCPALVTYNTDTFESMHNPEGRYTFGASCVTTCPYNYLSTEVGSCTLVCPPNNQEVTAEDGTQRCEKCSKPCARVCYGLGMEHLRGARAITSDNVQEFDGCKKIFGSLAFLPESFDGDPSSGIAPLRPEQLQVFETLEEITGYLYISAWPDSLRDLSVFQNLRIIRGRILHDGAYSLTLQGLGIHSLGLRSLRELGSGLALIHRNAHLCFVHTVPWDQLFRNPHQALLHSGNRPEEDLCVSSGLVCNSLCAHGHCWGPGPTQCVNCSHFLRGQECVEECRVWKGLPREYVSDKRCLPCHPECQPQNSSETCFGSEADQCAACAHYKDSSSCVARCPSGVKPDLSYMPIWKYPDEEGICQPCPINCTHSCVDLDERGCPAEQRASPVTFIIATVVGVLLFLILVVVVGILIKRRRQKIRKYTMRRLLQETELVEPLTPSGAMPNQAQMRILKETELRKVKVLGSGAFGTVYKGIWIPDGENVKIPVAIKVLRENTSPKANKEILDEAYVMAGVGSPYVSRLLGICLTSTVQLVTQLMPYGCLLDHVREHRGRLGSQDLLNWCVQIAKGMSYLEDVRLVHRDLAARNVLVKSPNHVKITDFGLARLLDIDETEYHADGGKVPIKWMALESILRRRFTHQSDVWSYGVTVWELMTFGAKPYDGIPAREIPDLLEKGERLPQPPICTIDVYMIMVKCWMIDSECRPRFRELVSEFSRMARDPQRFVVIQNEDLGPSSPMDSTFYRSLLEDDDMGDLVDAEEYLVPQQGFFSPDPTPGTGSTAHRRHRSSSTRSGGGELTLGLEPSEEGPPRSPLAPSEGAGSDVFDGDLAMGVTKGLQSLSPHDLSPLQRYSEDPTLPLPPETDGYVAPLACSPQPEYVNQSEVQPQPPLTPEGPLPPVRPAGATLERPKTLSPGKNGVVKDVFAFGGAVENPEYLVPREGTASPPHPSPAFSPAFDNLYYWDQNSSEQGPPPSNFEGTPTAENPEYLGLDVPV

SMILES | IC50 [µM]
CN(C)c1cc2c(Nc3ccc4c(cnn4Cc4ccccc4)c3)ncnc2cn1 [N*4*-(1-Benzyl-1H-indazol-5-yl)-N*6*,N*6*-dimethyl-pyrido[3,4-d]pyrimidine-4,6-diamine] | 0.39

target: not listed separately; assay: Inhibition of c-erbB-2 overexpressing HB4a cell proliferation

SMILES | IC50 [µM]
c1ccc(Cn2cnc3cc(Nc4ncnc5ccccc45)ccc32)cc1 [(1-Benzyl-1H-benzoimidazol-5-yl)-quinazolin-4-yl-amine] | 27
COc1cc2ncnc(Nc3ccc4c(cnn4Cc4ccccc4)c3)c2cc1OC [(1-Benzyl-1H-indazol-5-yl)-(6,7-dimethoxy-quinazolin-4-yl)-amine] | 0.29
COc1cc2ncnc(Nc3ccc4c(ccn4Cc4ccccc4)c3)c2cc1OC [(1-Benzyl-1H-indol-5-yl)-(6,7-dimethoxy-quinazolin-4-yl)-amine] | 0.35
c1ccc(Cn2ccc3cc(Nc4ncnc5ccccc45)ccc32)cc1 [(1-Benzyl-1H-indol-5-yl)-quinazolin-4-yl-amine] | 1.3
COc1cc2ncnc(Nc3ccc4nc(Cc5ccccc5)[nH]c4c3)c2cc1OC [(2-Benzyl-1H-benzoimidazol-5-yl)-(6,7-dimethoxy-quinazolin-4-yl)-amine] | 1.1
c1ccc(Cc2nc3ccc(Nc4ncnc5ccccc45)cc3[nH]2)cc1 [(2-Benzyl-1H-benzoimidazol-5-yl)-quinazolin-4-yl-amine] | 1.3
COc1cc2ncnc(Nc3ccc4nn(Cc5ccccc5)cc4c3)c2cc1OC [(2-Benzyl-2H-indazol-5-yl)-(6,7-dimethoxy-quinazolin-4-yl)-amine] | 3.1
c1ccc(Cn2cnc3ccc(Nc4ncnc5ccccc45)cc32)cc1 [(3-Benzyl-3H-benzoimidazol-5-yl)-quinazolin-4-yl-amine] | 21
Nc1cc2c(Nc3ccc4c(cnn4Cc4ccccc4)c3)ncnc2cn1 [N*4*-(1-Benzyl-1H-indazol-5-yl)-pyrido[3,4-d]pyrimidine-4,6-diamine] | 0.097
Nc1cc2c(Nc3ccc4nc(Cc5ccccc5)[nH]c4c3)ncnc2cn1 [N*4*-(2-Benzyl-1H-benzoimidazol-5-yl)-pyrido[3,4-d]pyrimidine-4,6-diamine] | 1.86

target: not listed separately; assay: Inhibition of erbB2 overexpressing HB4a.e5.2 cell proliferation

SMILES | IC50 [µM]
CN(C)c1cc2c(Nc3ccc4c(cnn4Cc4ccccc4)c3)ncnc2cn1 [N*4*-(1-Benzyl-1H-indazol-5-yl)-N*6*,N*6*-dimethyl-pyrido[3,4-d]pyrimidine-4,6-diamine] | 0.097
